Data on eleven compounds can be found in ChEMBL document CHEMBL1201862, “PubChem BioAssay data set” (2004).

Common to all, as to experiment: NCI-60 cell line screen, 48 h
Test [1] has as its system 786-0.
Test [2] concerns A498.
Test [3] concerns A549.
Test [4] relates to CAKI-1.
Test [5] relates to CCRF-CEM.
The test system of test [6] is COLO 205.
In test [7] the test system is DU-145.
Test [8] concerns HL-60.
In test [9] the test system is K562.
Test [10] deals with MCF7.
Test [11] has as its system MDA-MB-435.
For test [12], the system named is Malme-3M.
The subject of test [13] is NCI-H460.
Test [14] has as its system OVCAR-8.
Test [15] deals with SF-268.
Test [16] deals with SK-MEL-28.
In test [17] the test system is SK-OV-3.
For test [18], the system named is SN12C.
The subject of test [19] is SNB-19.
Test [20] deals with EKVX.

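1) Cells in 96-well plates. 2) Compound, 48 h, 5 concentrations. 3) Linear interpolation between surrounding doses. 4) Unreached endpoint = highest concentration. GI50 is the concentration that inhibits growth by half.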 Activity calls are given as the source filed them. No stated cut-off is given here; in the data, active = GI50 up to about 1.1 µM and inactive = higher.

For the compound `CCN(CCCl)c1cc(CN(C)C)cc(NC(=O)c2ccc(C(=O)Nc3cccc(N(CCCl)NN)c3)cc2)c1`, the GI50 in test [1] was < 0.01 µM (active); in test [2] it was 0.197 µM (active); in test [3] it was 0.0209 µM (active); in test [4] it was 0.0168 µM (active); in test [5], < 0.01 µM (active); in test [6] it was 0.0635 µM (active). Moreover, the GI50 in [7] is 0.0234 µM (active); in test [8], < 0.01 µM (active); in test [9], 0.014 µM (active); in [10], < 0.01 µM (active); in test [11], 0.016 µM (active); in test [12], 0.0224 µM (active). Also, the GI50 in test [13] was < 0.01 µM (active); in test [14], 0.0246 µM (active); in test [15], 0.0129 µM (active); in test [16], 0.192 µM (active); in test [17] it was 0.116 µM (active); in test [18], 0.0332 µM (active). In addition, the GI50 in test [19] is < 0.01 µM (active).
Take `C/C=C1/CN2CCC34c5ccccc5N(C)C23C2CC1C4(C(=O)OC)C(OC(C)=O)O2` (centres undefined): the GI50 in test [1], in test [2], in [3], in test [4], in test [5] and in test [6] was > 100 µM (inactive) in each case. Besides, the GI50 in [7], in test [20], in [8], in test [9], in test [10] and in test [11] was > 100 µM (inactive) throughout. Also, the GI50 in test [13], in test [14], in test [15], in test [16], in test [17] and in test [18] was > 100 µM (inactive) in each case. For the same compound, the GI50 in test [19] is > 100 µM (inactive).
With `Nc1cc(CO)cc(Nc2c3ccccc3nc3occc23)c1`, the GI50 in [1] was 29.9 µM (inactive); in [2] it was 51.4 µM (inactive); in test [3] it was 40.4 µM (inactive); in test [4], 28.6 µM (inactive); in test [5], 48.1 µM (inactive); in test [6], 28.6 µM (inactive). The GI50 is 43.3 µM (inactive) in test [7]; 67.5 µM (inactive) in [20]; 22.8 µM (inactive) in test [8]; 20 µM (inactive) in [10]; 10.5 µM (inactive) in test [11]; 92 µM (inactive) in test [12]. Also, the GI50 in [13] is 21.2 µM (inactive); in [14] it was 35.7 µM (inactive); in test [15], 21.3 µM (inactive); in test [16], 36.4 µM (inactive); in [17] it was 36.5 µM (inactive); in [18], 39 µM (inactive). In test [19], the GI50 is > 100 µM (inactive).
On to `COc1ccc(COCC[C@H](C)OC2OC(CO[Si](C)(C)C(C)(C)C)C(OC(=O)CCCN=[N+]=[N-])C(OC(=O)CCCN=[N+]=[N-])C2OC(=O)CCCN=[N+]=[N-])cc1` (some centres undefined), for which the GI50 in test [1] is 43.7 µM (inactive); in [2], > 100 µM (inactive); in test [3], > 100 µM (inactive); in test [4] it was 36.9 µM (inactive); in [5] it was 17.5 µM (inactive); in test [6], 25.6 µM (inactive). For the same compound, the GI50 in test [7] is > 100 µM (inactive); in [20], 33.2 µM (inactive); in test [8] it was 10.6 µM (inactive); in test [10] it was 25.9 µM (inactive); in [11] it was > 100 µM (inactive); in test [12], > 100 µM (inactive). In addition, the GI50 was 55.5 µM (inactive) in test [13]; 19.7 µM (inactive) in test [14]; 35.3 µM (inactive) in [15]; > 100 µM (inactive) in [16]; > 100 µM (inactive) in test [17]; 78.3 µM (inactive) in [18].
Turning to `OCC(O)COCn1cc(Cn2ncc3c(NCc4ccccc4)ncnc32)nn1` (centres undefined), the GI50 in test [1], in test [2], in test [3], in test [4], in test [5] and in test [6] was > 100 µM (inactive) in each case. For the same compound, the GI50 in [7], in test [20], in test [8], in test [10], in [11] and in test [14] was > 100 µM (inactive) each time. Also, the GI50 in [15] was 17.7 µM (inactive); in test [16], > 100 µM (inactive); in test [17], > 100 µM (inactive); in test [18], > 100 µM (inactive); in test [19], > 100 µM (inactive).
As to `COc1cc(/C=C2\C(=O)N(c3cccc(NC(C)=O)c3)C(c3ccccc3)S2(=O)=O)cc(OC)c1OC` (centres undefined), the GI50 in [1] was 88.5 µM (inactive); in test [2], > 100 µM (inactive); in [3], > 100 µM (inactive); in [4], > 100 µM (inactive); in test [5] it was 30.3 µM (inactive); in test [6], 63.1 µM (inactive). Moreover, the GI50 in test [7] was > 100 µM (inactive); in test [20], 74.1 µM (inactive); in test [8] it was 17.5 µM (inactive); in [9], 31.3 µM (inactive); in test [10], 31 µM (inactive); in test [11], 47.9 µM (inactive). For the same compound, the GI50 was 93.5 µM (inactive) in test [12]; 67.5 µM (inactive) in test [13]; 48.2 µM (inactive) in test [14]; 91.2 µM (inactive) in test [16]; > 100 µM (inactive) in test [17]; 67.5 µM (inactive) in test [18]. For the same compound, in test [19], the GI50 is > 100 µM (inactive).
Regarding `CC(C)(CC(=O)Nc1ccccc1)C(=O)O`, the GI50 in [1], in test [2], in [3], in [4], in [5] and in test [6] was > 100 µM (inactive) each time. For the same compound, the GI50 in test [7], in [20], in [8], in test [9], in test [10] and in [11] was > 100 µM (inactive) in each case. Besides, the GI50 in test [13], in [14], in test [16], in test [17], in [18] and in test [19] was > 100 µM (inactive) in each case.
Turning to `CON(C)C(=O)C1CCCO1` (centres undefined), the GI50 in test [1], in test [2], in test [3], in [4], in test [5] and in test [6] was > 100 µM (inactive) in each case. For the same compound, the GI50 in test [7] is > 100 µM (inactive); in [20] it was 39.5 µM (inactive); in test [8], 34.5 µM (inactive); in test [9] it was > 100 µM (inactive); in test [10], > 100 µM (inactive); in test [11], > 100 µM (inactive). Further, the GI50 in test [13], in test [14], in test [15], in test [16], in [17] and in test [18] was > 100 µM (inactive) in each case. For the same compound, the GI50 in test [19] is > 100 µM (inactive).
For `C=CC(Br)(CBr)CCC1OC1(C)C` (centres undefined), the GI50 is 15.7 µM (inactive) in [1]; 21.7 µM (inactive) in test [2]; 23.1 µM (inactive) in [3]; 19.5 µM (inactive) in test [4]; 29.9 µM (inactive) in [5]; 18.7 µM (inactive) in [6]. Moreover, the GI50 in test [7] is 25.3 µM (inactive); in test [20] it was 20.3 µM (inactive); in test [8] it was 23.1 µM (inactive); in test [9], 37.9 µM (inactive); in test [10], 14.1 µM (inactive); in test [11], 17.3 µM (inactive). Moreover, the GI50 in [12] is 23.5 µM (inactive); in test [13] it was 14.2 µM (inactive); in [15], 16.7 µM (inactive); in test [16], 16.3 µM (inactive); in test [17], 24.7 µM (inactive); in test [18], 16.6 µM (inactive). Further, the GI50 in [19] was 17.3 µM (inactive).
Take `Cc1cccc2c1CC1(Cc3c(C)cccc3C1=O)C2=O`: the GI50 in test [1], in test [2], in test [3], in test [4], in [5] and in test [7] was > 100 µM (inactive) in each case. Also, the GI50 in [20], in [8], in [9], in test [10], in [11] and in test [12] was > 100 µM (inactive) in each case. Besides, the GI50 in test [13], in test [14], in test [15], in [16], in [17] and in test [19] was > 100 µM (inactive) each time.
Take `CC1=CC(=O)C2=C(C)CCC3C(C)C(=O)OC3C12` (centres undefined): the GI50 in [1], in [2], in [3], in test [4], in test [5] and in [6] was > 100 µM (inactive) throughout. In addition, the GI50 in test [7], in [20], in [8], in test [10], in [11] and in [12] was > 100 µM (inactive) each time. The GI50 in test [13], in [14], in [15], in test [16], in test [17] and in test [18] was > 100 µM (inactive) each time. Further, in [19], the GI50 is > 100 µM (inactive).
